The source made the active and inactive calls.
How the values were obtained:
[1] = molecular target: T1, Mitochondrial peptide methionine sulfoxide reductase (Bos taurus, UniProt P54149); assay: Absorbance-based biochemical high throughput dose response assay for activators of Methionine sulfoxide reductase A (MsrA).; format: functional
T1 sequence (P54149 whole entry): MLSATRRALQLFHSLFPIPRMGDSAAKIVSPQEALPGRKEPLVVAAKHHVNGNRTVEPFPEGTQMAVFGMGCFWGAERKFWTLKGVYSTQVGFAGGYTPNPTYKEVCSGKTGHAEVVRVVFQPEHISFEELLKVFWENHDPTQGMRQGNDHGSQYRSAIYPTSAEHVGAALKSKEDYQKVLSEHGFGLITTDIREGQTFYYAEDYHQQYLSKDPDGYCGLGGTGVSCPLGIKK

INS1 = assay: beta cell apoptosis inhibitors, cytokine rescue, dose response, luminescence, retest (AID 449756); format: functional, cell-based; details: Rattus norvegicus;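 note: cell death triggered by IL-1 beta plus TNF-alpha plus IFN-gamma mixture; protective hits raise ATP signal compared with cytokine alone wells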
[2] = Luminescence Cell-Based Dose Confirmation HTS to Identify Inhibitors of Platelet Dense Granule Release. [Related pubchem assays: 1663 (Primary HTS), 1678 (Summary of Project)]; format: functional
[3] = HepG2 cell cytotoxicity, dose response, cytotoxicity control for Shn3 inhibitor project, CellTiter-Glo, cherry-picked (AID 624134); format: functional, cell-based
Protein Wnt-3a = Protein Wnt-3a (Mus musculus, UniProt P27467); assay: Wnt3a-driven reporter signaling inhibition, dose response, selectivity assay for Gli-SUFU antagonist project, Wnt-LIGHT cells, luminescence (AID 651570); format: functional; details: read-out: IC50_Mean;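 note: Wnt-LIGHT reporter cells stimulated with conditioned medium from Wnt3a-producing cells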
Sequence of Protein Wnt-3a (P27467 whole entry): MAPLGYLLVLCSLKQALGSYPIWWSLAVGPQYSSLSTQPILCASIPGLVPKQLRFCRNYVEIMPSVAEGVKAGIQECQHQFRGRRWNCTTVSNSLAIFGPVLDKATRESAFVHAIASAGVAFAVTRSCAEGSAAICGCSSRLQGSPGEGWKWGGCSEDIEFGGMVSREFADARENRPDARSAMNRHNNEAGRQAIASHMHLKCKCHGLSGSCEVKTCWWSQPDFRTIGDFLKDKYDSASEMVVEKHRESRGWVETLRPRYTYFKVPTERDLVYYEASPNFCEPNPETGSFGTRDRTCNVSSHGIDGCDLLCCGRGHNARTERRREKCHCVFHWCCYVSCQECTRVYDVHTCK

[4] = molecular target: Luciferin 4-monooxygenase (Photinus pyralis, UniProt P08659); assay: firefly luciferase enzyme inhibitors, dose response, biochemical, luminescence (AID 1891)
Sequence of Luciferin 4-monooxygenase (P08659 whole entry): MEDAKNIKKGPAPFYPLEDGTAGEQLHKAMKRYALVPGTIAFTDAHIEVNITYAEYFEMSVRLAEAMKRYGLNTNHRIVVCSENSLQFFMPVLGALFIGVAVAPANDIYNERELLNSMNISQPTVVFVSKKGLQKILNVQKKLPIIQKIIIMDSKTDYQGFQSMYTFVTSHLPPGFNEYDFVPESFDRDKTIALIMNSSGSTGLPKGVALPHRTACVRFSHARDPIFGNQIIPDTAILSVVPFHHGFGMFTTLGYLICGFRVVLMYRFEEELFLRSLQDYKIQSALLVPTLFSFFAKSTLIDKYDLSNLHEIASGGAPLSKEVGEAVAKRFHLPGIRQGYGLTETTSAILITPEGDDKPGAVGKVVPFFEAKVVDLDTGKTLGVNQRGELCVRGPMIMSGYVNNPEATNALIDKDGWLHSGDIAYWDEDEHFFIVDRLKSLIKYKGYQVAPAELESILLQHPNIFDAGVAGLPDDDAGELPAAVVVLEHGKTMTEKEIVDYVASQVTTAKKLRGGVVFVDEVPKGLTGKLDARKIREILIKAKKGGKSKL

[5] = Shn3 3'UTR reporter inhibitors, dose response, cell-based, Clone20 osteoblasts, firefly luciferase, cherry-picked (AID 624132); format: functional;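 note: firefly luciferase luminescence from reporter carrying the Shn3 3'UTR in osteoblasts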
[6] = control 3'UTR Renilla luciferase suppression, dose response, counter-screen for Shn3 inhibitor project, cell-based, Clone20-Shn3RL, cherry-picked (AID 624133); format: functional
H9c2 = assay: cells; format: functional, cell-based; details: Rattus norvegicus, H9c2, Myocardium;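 note: confirmatory concentration-response retest of ultra-high-throughput screening hits for modulation of myocardial damage; cell death induced by hydrogen peroxide oxidative stress; compound pretreatment for 60 min then peroxide exposure for 2 h; potency is for protecting the cells against peroxide damage rather than for killing them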
Cytochrome P450 3A4 = Cytochrome P450 3A4 (Homo sapiens, UniProt P08684);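 note: CYP3A4 tested as one member of a cytochrome P450 panel screen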
Sequence of Cytochrome P450 3A4 (P08684 whole entry): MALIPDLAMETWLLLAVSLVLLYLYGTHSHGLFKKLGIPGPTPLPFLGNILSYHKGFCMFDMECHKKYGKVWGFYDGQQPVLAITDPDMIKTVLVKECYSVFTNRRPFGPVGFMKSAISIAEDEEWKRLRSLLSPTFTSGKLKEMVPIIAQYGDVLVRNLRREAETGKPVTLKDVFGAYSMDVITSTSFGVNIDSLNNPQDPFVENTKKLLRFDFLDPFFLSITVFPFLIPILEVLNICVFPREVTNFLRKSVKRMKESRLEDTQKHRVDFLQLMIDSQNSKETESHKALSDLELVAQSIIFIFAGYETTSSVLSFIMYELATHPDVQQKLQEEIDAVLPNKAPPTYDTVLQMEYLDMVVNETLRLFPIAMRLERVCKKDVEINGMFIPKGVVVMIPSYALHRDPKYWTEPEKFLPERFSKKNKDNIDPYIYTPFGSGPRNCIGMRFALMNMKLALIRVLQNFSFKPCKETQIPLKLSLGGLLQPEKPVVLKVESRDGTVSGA

[7] = HEp-2 cell cytotoxicity, dose response, cytotoxicity control for RSV inhibitor project, HTS (AID 2410); format: functional; details: human respiratory syncytial virus
[8] = cytotoxicity in HEK-293T cells, dose response, cytotoxicity control for BCR NF-kB inhibitor project, luminescence, B-cell screen hits (AID 489021); format: functional, cell-based;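 note: HEK-293T cells carrying an NF-kB luciferase reporter; cells exposed to compound for about 14 hours before viability readout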
[9] = inhibitors of SNCA 5'UTR-driven reporter translation, confirmation, H4 neuroglioma cells, luminescence (AID 1988); format: functional, cell-based
[10] = Luminescence Cell-Based Dose Response HTS to Identify Inhibitors of 5'UTR Stem-Loop Driven Prion Protein mRNA Translation in H4 Neuroglioblastoma Cells. [Related pubchem assays: 1827 (Project Summary), 1813 (Primary HTS)]; format: functional
[11] = inhibitors of firefly luciferase expression or activity, dose response, H4 neuroglioma cells, luminescence (AID 1990); format: functional, cell-based
[12] = molecular target: T2, Low molecular weight phosphotyrosine protein phosphatase (Homo sapiens, UniProt P24666); format: functional; details: read-out: IC50_Mean;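 note: Dose-response confirmation assay measuring inhibition of LMPTP enzyme activity by fluorescence intensity read-out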
T2 sequence (P24666 whole entry): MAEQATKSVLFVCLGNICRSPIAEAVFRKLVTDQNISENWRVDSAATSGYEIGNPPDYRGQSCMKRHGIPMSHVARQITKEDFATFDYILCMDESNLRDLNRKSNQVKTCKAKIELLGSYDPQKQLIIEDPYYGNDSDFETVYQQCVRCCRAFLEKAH

[13] = molecular target: 72 kDa type IV collagenase (Homo sapiens, UniProt P08253); assay: Dose Response validation of uHTS RPN11 inhibitor hits using a MMP-2 Fluorescence assay.; format: functional
Sequence of 72 kDa type IV collagenase (P08253 whole entry): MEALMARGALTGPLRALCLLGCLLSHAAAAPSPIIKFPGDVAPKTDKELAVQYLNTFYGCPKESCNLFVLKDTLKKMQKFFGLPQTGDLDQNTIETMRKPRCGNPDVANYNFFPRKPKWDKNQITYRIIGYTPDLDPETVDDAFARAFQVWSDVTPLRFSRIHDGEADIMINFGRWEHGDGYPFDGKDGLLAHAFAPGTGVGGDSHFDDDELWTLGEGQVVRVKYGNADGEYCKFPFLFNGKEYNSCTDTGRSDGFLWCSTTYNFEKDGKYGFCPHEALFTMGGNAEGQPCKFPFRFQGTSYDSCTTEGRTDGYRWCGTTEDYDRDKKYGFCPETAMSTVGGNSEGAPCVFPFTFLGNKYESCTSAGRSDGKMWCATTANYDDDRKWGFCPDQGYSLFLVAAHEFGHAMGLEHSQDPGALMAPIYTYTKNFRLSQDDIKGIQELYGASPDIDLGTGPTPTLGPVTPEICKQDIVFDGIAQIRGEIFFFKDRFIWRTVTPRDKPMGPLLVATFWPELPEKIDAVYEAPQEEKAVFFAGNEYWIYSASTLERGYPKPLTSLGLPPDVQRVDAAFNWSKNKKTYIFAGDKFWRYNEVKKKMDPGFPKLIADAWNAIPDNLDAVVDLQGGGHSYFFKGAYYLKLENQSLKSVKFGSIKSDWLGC

Streptococcus = assay: Group A Streptococcus viability loss, dose response, counter-screen for streptokinase expression inhibitor project, luminescence, BacTiterGlo (AID 1915); format: functional, organism-based;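 note: potency for reduction of bacterial viability or growth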
Prothrombin = Prothrombin (Bos taurus, UniProt P00735); assay: thrombin inhibition, dose response, biochemical, fluorescence polarization, uHTS hits (AID 602369); format: functional
[14] = molecular target: 26S proteasome non-ATPase regulatory subunit 14 (Homo sapiens, UniProt O00487); assay: inhibition of proteasome subunit RPN11 – biochemical, fluorescence polarization, uHTS hits, confirmation (AID 602368); format: functional
Sequence of 26S proteasome non-ATPase regulatory subunit 14 (O00487 whole entry): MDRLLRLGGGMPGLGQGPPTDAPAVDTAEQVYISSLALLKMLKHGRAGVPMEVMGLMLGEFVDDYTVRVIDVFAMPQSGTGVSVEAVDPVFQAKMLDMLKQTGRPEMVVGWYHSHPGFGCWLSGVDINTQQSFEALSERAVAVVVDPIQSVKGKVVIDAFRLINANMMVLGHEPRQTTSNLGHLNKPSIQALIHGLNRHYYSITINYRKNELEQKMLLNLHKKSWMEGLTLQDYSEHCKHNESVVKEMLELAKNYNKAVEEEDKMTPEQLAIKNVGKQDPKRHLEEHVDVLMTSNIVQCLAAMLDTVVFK

[15] = test system: Streptococcus sp. 'group A'; assay: growth inhibition of control SK(-) GAS strain, dose response, counter-screen for streptokinase expression inhibitor project, luminescence, kanamycin, BacTiterGlo, confirmation (AID 1900); format: functional, organism-based
[16] = molecular target: Heat shock protein HSP 90-alpha (Homo sapiens, UniProt P07900); format: functional, organism-based
Protein RecA = molecular target: T3, Protein RecA (Mycobacterium tuberculosis, UniProt P9WHJ3); assay: Fluorescence Cell-Free Homogeneous Dose Retest to Identify Inhibitors of RecA-Intein Splicing Activity. [Related pubchem assays (depositor defined):AID2097, AID2223, AID489010, AID492950]; format: functional
T3 sequence (P9WHJ3 whole entry): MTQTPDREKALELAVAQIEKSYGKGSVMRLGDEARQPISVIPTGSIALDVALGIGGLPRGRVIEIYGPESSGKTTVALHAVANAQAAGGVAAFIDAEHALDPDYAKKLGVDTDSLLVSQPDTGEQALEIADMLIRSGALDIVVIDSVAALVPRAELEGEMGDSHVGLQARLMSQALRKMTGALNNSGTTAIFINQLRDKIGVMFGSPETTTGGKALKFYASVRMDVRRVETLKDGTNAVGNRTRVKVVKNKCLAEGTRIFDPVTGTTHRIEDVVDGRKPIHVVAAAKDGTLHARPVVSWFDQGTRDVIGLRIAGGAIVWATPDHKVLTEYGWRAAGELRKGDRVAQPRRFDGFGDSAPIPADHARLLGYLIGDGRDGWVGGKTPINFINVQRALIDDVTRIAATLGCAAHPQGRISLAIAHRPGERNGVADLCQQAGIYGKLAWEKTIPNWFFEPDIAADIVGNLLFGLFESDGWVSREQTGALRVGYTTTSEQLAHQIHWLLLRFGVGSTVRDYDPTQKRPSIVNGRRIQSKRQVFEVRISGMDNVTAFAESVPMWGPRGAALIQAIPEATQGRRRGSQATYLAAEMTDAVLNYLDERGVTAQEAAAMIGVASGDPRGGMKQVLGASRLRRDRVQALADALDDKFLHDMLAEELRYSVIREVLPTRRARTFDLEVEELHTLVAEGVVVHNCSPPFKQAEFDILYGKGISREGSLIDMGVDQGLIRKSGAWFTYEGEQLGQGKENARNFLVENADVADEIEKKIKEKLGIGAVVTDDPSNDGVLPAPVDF

[17] = molecular target: T4, Replicative DNA helicase DnaB (Mycobacterium tuberculosis, UniProt P9WMR3); assay: DnaB intein splicing inhibitors, dose response, biochemical, cell-free fluorescence (AID 449749); format: functional
T4 sequence (P9WMR3 whole entry): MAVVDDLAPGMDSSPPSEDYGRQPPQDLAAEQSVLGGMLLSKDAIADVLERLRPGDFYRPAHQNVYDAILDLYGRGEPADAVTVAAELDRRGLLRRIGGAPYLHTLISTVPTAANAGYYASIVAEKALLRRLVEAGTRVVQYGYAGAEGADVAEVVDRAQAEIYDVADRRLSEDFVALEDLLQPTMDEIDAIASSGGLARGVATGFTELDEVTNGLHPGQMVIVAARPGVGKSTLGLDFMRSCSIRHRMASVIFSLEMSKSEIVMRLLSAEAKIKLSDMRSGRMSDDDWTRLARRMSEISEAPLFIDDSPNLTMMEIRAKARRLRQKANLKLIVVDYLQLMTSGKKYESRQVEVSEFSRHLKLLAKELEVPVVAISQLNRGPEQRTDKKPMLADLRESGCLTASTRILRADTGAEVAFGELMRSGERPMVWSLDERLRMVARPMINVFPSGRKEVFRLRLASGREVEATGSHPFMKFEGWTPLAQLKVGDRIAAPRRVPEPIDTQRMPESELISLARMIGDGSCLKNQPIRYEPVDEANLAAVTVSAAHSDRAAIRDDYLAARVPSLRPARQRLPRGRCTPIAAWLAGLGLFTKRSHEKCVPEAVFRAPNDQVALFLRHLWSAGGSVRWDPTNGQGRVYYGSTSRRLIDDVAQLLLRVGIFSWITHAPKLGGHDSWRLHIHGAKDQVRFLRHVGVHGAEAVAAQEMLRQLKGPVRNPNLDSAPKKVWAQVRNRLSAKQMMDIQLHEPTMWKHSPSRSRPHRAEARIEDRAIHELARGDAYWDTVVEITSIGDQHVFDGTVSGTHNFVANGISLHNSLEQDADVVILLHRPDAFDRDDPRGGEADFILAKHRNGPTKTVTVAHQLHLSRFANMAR

[18] = molecular target: T5, Heat shock factor protein 1 (Mus musculus, UniProt P38532); assay: HSF1 potentiators in luciferase reporter cells, confirmation, cell-based, NIH3T3, luminescence, dose retest (AID 435004); format: functional;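 note: stress induced by proteasome inhibitor MG132 added 30 min after compound; luciferase reporter driven by HSF1 response element in NIH3T3 cells; actives raise luminescence as potentiators of the MG132 stress response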
T5 sequence (P38532 whole entry): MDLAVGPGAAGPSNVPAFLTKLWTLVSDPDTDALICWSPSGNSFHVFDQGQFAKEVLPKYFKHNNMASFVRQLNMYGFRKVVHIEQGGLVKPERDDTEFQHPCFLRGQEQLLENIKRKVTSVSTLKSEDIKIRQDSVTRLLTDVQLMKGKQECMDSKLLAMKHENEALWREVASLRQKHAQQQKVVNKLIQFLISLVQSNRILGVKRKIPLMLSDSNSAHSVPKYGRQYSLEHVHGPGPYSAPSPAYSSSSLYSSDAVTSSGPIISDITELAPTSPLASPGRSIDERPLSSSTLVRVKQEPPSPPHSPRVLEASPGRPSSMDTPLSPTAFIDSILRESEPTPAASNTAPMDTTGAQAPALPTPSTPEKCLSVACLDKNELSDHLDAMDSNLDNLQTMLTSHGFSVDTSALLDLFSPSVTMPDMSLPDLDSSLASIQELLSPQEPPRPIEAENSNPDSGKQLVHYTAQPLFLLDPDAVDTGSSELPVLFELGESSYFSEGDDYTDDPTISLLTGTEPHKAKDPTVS

[19] = molecular target: T6, Corticotropin-releasing factor receptor 2/Corticotropin-releasing factor-binding protein (Homo sapiens, UniProt P24387+Q13324); assay: activators of CRF receptor 2 with binding protein – uHTS hits, confirmation (AID 602473); format: functional; details: read-out: EC50_Mean
T6 sequence (Q13324 whole entry): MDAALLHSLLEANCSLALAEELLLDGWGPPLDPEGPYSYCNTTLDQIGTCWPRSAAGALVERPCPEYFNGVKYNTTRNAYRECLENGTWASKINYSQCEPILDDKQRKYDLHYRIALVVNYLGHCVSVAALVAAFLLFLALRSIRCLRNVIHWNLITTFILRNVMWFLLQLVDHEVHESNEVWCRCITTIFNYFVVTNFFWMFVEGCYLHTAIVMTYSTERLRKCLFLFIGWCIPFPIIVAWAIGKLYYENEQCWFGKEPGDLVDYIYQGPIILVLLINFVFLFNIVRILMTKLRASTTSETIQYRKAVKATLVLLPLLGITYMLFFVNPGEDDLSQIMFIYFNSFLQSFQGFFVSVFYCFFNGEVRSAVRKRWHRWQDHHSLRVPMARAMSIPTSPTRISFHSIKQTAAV
T6 sequence (P24387 whole entry): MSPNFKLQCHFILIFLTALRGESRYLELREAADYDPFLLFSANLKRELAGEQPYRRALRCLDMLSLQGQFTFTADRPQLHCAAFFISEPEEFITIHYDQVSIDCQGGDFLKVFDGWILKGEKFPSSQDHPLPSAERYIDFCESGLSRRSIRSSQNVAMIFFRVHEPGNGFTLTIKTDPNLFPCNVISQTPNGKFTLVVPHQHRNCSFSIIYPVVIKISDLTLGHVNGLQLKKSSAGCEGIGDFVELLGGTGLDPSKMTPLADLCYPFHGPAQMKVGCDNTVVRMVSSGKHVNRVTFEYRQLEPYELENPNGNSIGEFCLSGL

[20] = CRF-BP/CRF-R2 complex antagonists, dose response, cell-based, uHTS hits, 384-well (AID 651639); format: functional, Homo sapiens; details: read-out: IC50_Mean
[21] = molecular target: T6, Corticotropin-releasing factor receptor 2/Corticotropin-releasing factor-binding protein; assay: Dose Response confirmation of uHTS hits for small molecule antagonists of the CRF-binding protein and CRF-R2 receptor complex.; format: functional; details: read-out: IC50_Mean

N#Cc1ccccc1NC(=O)CN1C(=O)NC(Cc2c[nH]c3ccccc23)C1=O (stereo not drawn)
EC50 [1]: > 104 µM (inactive)

Cc1cccnc1CN1CCN(C(=O)c2cc(COc3ccc4ncccc4c3)on2)CC1
AC50 (INS1): 3.77 µM (active) | EC50 [2]: > 112 µM (not active) | AC50 [3]: 7.57 µM (active) | IC50 (Protein Wnt-3a): 1.62 µM (active) | EC50 [4]: > 112 µM (not active) | AC50 [5]: 2.1 µM (active) | AC50 [6]: 2.78 µM (active)

COc1ccc(/C=N/NC(=O)c2ccc(COc3cccc4cccnc34)cc2)cc1OC
IC50 (H9c2): > 79 µM (inactive)

COc1ccc(-c2nn(-c3ccccc3)cc2/C=N/NC(=O)c2ccc(Br)o2)cc1
AC50 (Cytochrome P450 3A4): 15.8 µM (inconclusive) | CC50 [7]: 18.8 µM (active) | IC50 (Protein Wnt-3a): 7.01 µM (active)

COc1cc(NC(=O)c2cc3c(C)nc4ccccc4c3o2)cc(OC)c1OC
IC50 (H9c2): > 79 µM (inactive) | IC50 [8]: 62.8 µM (inactive)

COc1ccc(-n2nc3c(N4CCC(C(=O)NCc5ccco5)CC4)nnc(C)c3c2C)cc1
EC50 [9]: > 120 µM (not active) | EC50 [10]: 20.3 µM (active) | EC50 [11]: > 120 µM (not active) | IC50 [12]: 61.1 µM (inactive)

CN1CCN(C(c2ccc(Cl)cc2)c2cc(Cl)c3cccnc3c2O)CC1 (stereo not drawn)
IC50 [13]: 14.8 µM (active) | EC50 (Streptococcus): 3.8 µM (active) | IC50 (Prothrombin): 75.6 µM (active) | IC50 [14]: 56.4 µM (active) | EC50 [15]: 1.92 µM (active) | AC50 [16]: 0.77 µM (active) | EC50 (Protein RecA): 2.42 µM (active) | AC50 [17]: > 380 µM (inactive) | EC50 [18]: > 260 µM (inconclusive)

COc1ccc(-c2csc(NC(=O)CSc3nc(SC)ns3)n2)cc1
EC50 [19]: > 53 µM (inactive) | IC50 [20]: 4.64 µM (active) | IC50 [21]: 1.75 µM (active)

Cc1ccc2c(c1)nc1c3ccccc3nc(-c3ccccc3N)n21
IC50 (H9c2): > 79 µM (inactive)

COc1nnc(-c2ccc(N3CCCCC3)c(N)c2)c2ccccc12
IC50 (Protein Wnt-3a): 25.8 µM (inactive)

CC12C=CC(=O)CC1CCC1C2CCC2(C)C(O)C(O)CC12 (stereo not drawn)
IC50 (H9c2): > 79 µM (inactive)

From ChEMBL document CHEMBL1201862, “PubChem BioAssay data set” (2004)
